The values below come from PubChem BioAssay AID192 (DTP/NCI, 2004).

The subject of this assay is BDF1 mice, B16 melanoma ip, median survival T/C. Description: NCI In Vivo Anticancer Drug Screen. Data for tumor model B16 Melanoma (intraperitoneal) in B6D2F1 (BDF1) mice. The following applies: endpoint: median survival time, higher = longer survival. An outline of the steps:
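Compounds were tested in mice carrying transplantable tumors. Survival or tumor size was recorded, and each value is the treated-group measurement (T) divided by that of the vehicle-treated control group (C).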

The mark [1] stands for this setting: dose: 100.0 mg/kg/injection, schedule: Q01DX009 (ip), vehicle: saline with Tween-80.
Where [2] appears, read: dose: 100.0 mg/kg/injection, schedule: Q04DX003 (ip), vehicle: saline with Tween-80.
The mark [3] stands for this setting: dose: 200.0 mg/kg/injection, schedule: Q01DX009 (ip), vehicle: saline with Tween-80.
[4] abbreviates: dose: 50.0 mg/kg/injection, schedule: Q01DX009 (ip), vehicle: saline with Tween-80.
[5] abbreviates: dose: 25.0 mg/kg/injection, schedule: Q01DX009 (ip), vehicle: saline.
Where [6] appears, read: dose: 6.25 mg/kg/injection, schedule: Q01DX009 (ip), vehicle: saline with Tween-80.
Where [7] appears, read: dose: 12.5 mg/kg/injection, schedule: Q01DX009 (ip), vehicle: saline with Tween-80.
Setting [8] is: dose: 25.0 mg/kg/injection, schedule: Q01DX009 (ip), vehicle: saline with Tween-80.
The mark [9] stands for this setting: dose: 3.12 mg/kg/injection, schedule: Q01DX009 (ip), vehicle: Klucel (hydroxypropylcellulose) (HPC).
Setting [10] is: dose: 12.5 mg/kg/injection, schedule: Q01DX009 (ip), vehicle: Klucel (hydroxypropylcellulose) (HPC).
Setting [11] is: dose: 100.0 mg/kg/injection, schedule: Q01DX009 (ip), vehicle: Klucel (hydroxypropylcellulose) (HPC).
Setting [12] is: dose: 200.0 mg/kg/injection, schedule: Q01DX009 (ip), vehicle: Klucel (hydroxypropylcellulose) (HPC).
Setting [13] is: dose: 400.0 mg/kg/injection, schedule: Q01DX009 (ip), vehicle: Klucel (hydroxypropylcellulose) (HPC).
[14] abbreviates: dose: 25.0 mg/kg/injection, schedule: Q01DX009 (ip), vehicle: Klucel (hydroxypropylcellulose) (HPC).
Where [15] appears, read: dose: 50.0 mg/kg/injection, schedule: Q01DX009 (ip), vehicle: Klucel (hydroxypropylcellulose) (HPC).

Where “and” joins values, the source holds several entries; their conditions need not be identical. Identical values can stand only once. Inconclusive results and toxic doses are left out. Square brackets hold non-standard residues; d marks the D form. Peptide text beside a SMILES is read from it. * marks the point of attachment. ξ: configuration not given here. ξF = NC(Cc1ccccc1)C(=O)O; Cbz = O=C(OCc1ccccc1)*; Sar = CNCC(=O)O

Consider `O=C1C(Cl)=C(N2CC2)C(=O)C(Cl)=C1N1CC1`, for which the T/C runs as follows: (dose: 0.62 mg/kg/injection, schedule: Q01DX009 (ip), vehicle: Klucel (hydroxypropylcellulose) (HPC)) 105 % of control; (dose: 1.25 mg/kg/injection, schedule: Q01DX009 (ip), vehicle: Klucel (hydroxypropylcellulose) (HPC)) 105 % of control; (dose: 2.5 mg/kg/injection, schedule: Q01DX009 (ip), vehicle: Klucel (hydroxypropylcellulose) (HPC)) 114 % of control; (dose: 2.5 mg/kg/injection, schedule: Q01DX009 (ip), vehicle: saline) 115 % of control; (dose: 5.0 mg/kg/injection, schedule: Q01DX009 (ip), vehicle: Klucel (hydroxypropylcellulose) (HPC)) 123 % of control; (dose: 10.0 mg/kg/injection, schedule: Q01DX009 (ip), vehicle: Klucel (hydroxypropylcellulose) (HPC)) 124 % of control. Moreover, the T/C (dose: 20.0 mg/kg/injection, schedule: Q01DX009 (ip), vehicle: Klucel (hydroxypropylcellulose) (HPC)) was 124 % of control.

On to `COc1ccc(C(=O)C(C)Br)c(OCc2ccccc2)c1OC` (configuration not stated), for which the T/C was 95 % of control under setting [1]; 94 % of control under setting [2]; 87 % of control under setting [3]; 100 % of control (dose: 200.0 mg/kg/injection, schedule: Q04DX003 (ip), vehicle: saline with Tween-80); 97 % of control (dose: 400.0 mg/kg/injection, schedule: Q04DX003 (ip), vehicle: saline with Tween-80).

Consider `[CH3][Sn]([CH3])([CH3])[S]C(=S)N1CCOCC1`, for which the T/C runs as follows: (dose: 0.75 mg/kg/injection, schedule: Q01DX009 (ip), vehicle: Klucel (hydroxypropylcellulose) (HPC)) 100 % of control; (dose: 1.5 mg/kg/injection, schedule: Q01DX009 (ip), vehicle: Klucel (hydroxypropylcellulose) (HPC)) 95 % of control.

On to `CC1=C(/C=C/C(C)=C/C=C/C(C)=C/C(=O)O)C(C)(C)CCC1`, for which the T/C by setting is: (dose: 0.5 mg/kg/injection, schedule: Q01DX009 (ip), vehicle: saline with Tween-80) 98 % of control; (dose: 1.0 mg/kg/injection, schedule: Q01DX009 (ip), vehicle: saline with Tween-80) 90 % of control; (dose: 8.0 mg/kg/injection, schedule: Q01DX009 (ip), vehicle: saline with Tween-80) 92 % of control; (dose: 16.0 mg/kg/injection, schedule: Q01DX009 (ip), vehicle: saline with Tween-80) 86 % of control and 88 % of control (2×); (dose: 32.0 mg/kg/injection, schedule: Q01DX009 (ip), vehicle: saline with Tween-80) 86 % of control and 94 % of control; (dose: 64.0 mg/kg/injection, schedule: Q01DX009 (ip), vehicle: saline with Tween-80) 93 % of control.

In the case of `O=C(Oc1ccc(Cl)cc1)c1ccc(Cl)cc1`, the T/C (dose: 75.0 mg/kg/injection, schedule: Q04DX003 (ip), vehicle: Klucel (hydroxypropylcellulose) (HPC)) is 100 % of control.

`CN(CC(=O)NC(Cc1ccccc1)C(=O)O)C(=O)OCc1ccccc1` (configuration not stated) (Cbz-[Sar]-[ξF]-OH): the T/C was 97 % of control under setting [4], 96 % of control under setting [1] and 103 % of control under setting [3].

As for `CN(C)CCC1(c2ccccc2)C=Cc2ccccc21` (configuration not stated), the T/C (dose: 3.12 mg/kg/injection, schedule: Q01DX009 (ip), vehicle: saline) is 108 % of control; the T/C (dose: 6.25 mg/kg/injection, schedule: Q01DX009 (ip), vehicle: saline) was 102 % of control; the T/C (dose: 12.5 mg/kg/injection, schedule: Q01DX009 (ip), vehicle: saline) is 108 % of control; the T/C under setting [5] was 95 % of control.

On to `Oc1ccccc1N=Cc1ccc(C=Nc2ccccc2O)cc1`, for which the T/C by setting is: (dose: 133.0 mg/kg/injection, schedule: Q01DX009 (ip), vehicle: gum acacia) 88 % of control; (dose: 200.0 mg/kg/injection, schedule: Q01DX009 (ip), vehicle: gum acacia) 99 % of control.

For the compound `O=Nc1c(N=O)c(N=O)c(N=O)c(N=O)c1N=O`, the T/C is 108 % of control (dose: 1.25 mg/kg/injection, schedule: Q01DX009 (ip), vehicle: saline with Tween-80); 105 % of control (dose: 2.5 mg/kg/injection, schedule: Q01DX009 (ip), vehicle: saline with Tween-80); 88 % of control and 100 % of control (dose: 5.0 mg/kg/injection, schedule: Q01DX009 (ip), vehicle: saline with Tween-80); 104 % of control (dose: 10.0 mg/kg/injection, schedule: Q01DX009 (ip), vehicle: saline with Tween-80); 87 % of control (dose: 20.0 mg/kg/injection, schedule: Q01DX009 (ip), vehicle: saline with Tween-80).

On to `COC(=O)Nc1ccc(Cc2ccc(NC(=O)OC)cc2)cc1`, for which the T/C under setting [6] is 107 % of control, the T/C under setting [7] is 110 % of control, the T/C under setting [8] is 112 % of control and the T/C under setting [4] is 115 % of control.

`CCCCN(CCCC)CCNc1ccc(Cl)c2oc3cc(C)ccc3c(=O)c12`: the T/C was 100 % of control under setting [7]; 93 % of control under setting [8]; 105 % of control (dose: 25.0 mg/kg/injection, schedule: Q04DX003 (ip), vehicle: saline with Tween-80); 92 % of control (dose: 50.0 mg/kg/injection, schedule: Q04DX003 (ip), vehicle: saline with Tween-80); 86 % of control under setting [2].

Turning to `O=S1(=O)CC(Cl)C(Cl)C1` (configuration not stated), the T/C is 91 % of control under setting [9] and 96 % of control under setting [10].

For `C[C@H]1C(=O)O[C@@H]2CCN3CC=C(COC(=O)[C@](C)(O)[C@@]1(C)O)[C@H]23`, the T/C under setting [5] was 123 % of control.

In the case of `CCC(=O)NC1=C(N2CC2C)C(=O)C(NC(=O)CC)=C(N2CC2C)C1=O` (configuration not stated), the T/C runs as follows: (dose: 0.39 mg/kg/injection, schedule: Q01DX009 (ip), vehicle: Klucel (hydroxypropylcellulose) (HPC)) 119 % of control; (dose: 0.78 mg/kg/injection, schedule: Q01DX009 (ip), vehicle: Klucel (hydroxypropylcellulose) (HPC)) 95 % of control; (dose: 1.56 mg/kg/injection, schedule: Q01DX009 (ip), vehicle: Klucel (hydroxypropylcellulose) (HPC)) 111 % of control; under setting [9], 102 % of control; (dose: 6.25 mg/kg/injection, schedule: Q01DX009 (ip), vehicle: Klucel (hydroxypropylcellulose) (HPC)) 123 % of control.

Turning to `COc1ccccc1NC(=O)Oc1ccc(-c2ccccc2)cc1Br`, the T/C by setting is: under setting [11], 100 % of control; (dose: 100.0 mg/kg/injection, schedule: Q04DX003 (ip), vehicle: Klucel (hydroxypropylcellulose) (HPC)) 100 % of control; under setting [12], 96 % of control; (dose: 200.0 mg/kg/injection, schedule: Q04DX003 (ip), vehicle: Klucel (hydroxypropylcellulose) (HPC)) 90 % of control; under setting [13], 96 % of control; (dose: 400.0 mg/kg/injection, schedule: Q04DX003 (ip), vehicle: Klucel (hydroxypropylcellulose) (HPC)) 96 % of control.

As for `S=C([S][Sn]([c]1ccccc1)([c]1ccccc1)[c]1ccccc1)N1CCCCC1`, the T/C by setting is: (dose: 3.12 mg/kg/injection, schedule: Q01DX009 (ip), vehicle: saline with Tween-80) 100 % of control; under setting [6], 107 % of control; under setting [7], 103 % of control; under setting [8], 99 % of control.

With `CC(c1c[nH]c2ccccc12)N1CCCCC1` (configuration not stated), the T/C reads like this: under setting [10], 97 % of control; under setting [14], 95 % of control; under setting [15], 98 % of control.

Consider `O=C(CC(CC(=O)c1ccccc1)c1ccco1)c1ccccc1`, for which the T/C reads like this: under setting [11], 93 % of control; under setting [12], 93 % of control; under setting [13], 93 % of control.

As for `NCCNc1ccc(NCCN)c2c1C(=O)c1ccccc1C2=O`, the T/C was 210 % of control (dose: 4.0 mg/kg/injection, schedule: Q01DX009 (ip), vehicle: acid diluted with saline) and 218 % of control (dose: 8.0 mg/kg/injection, schedule: Q01DX009 (ip), vehicle: acid diluted with saline).

Consider `CCOP(=O)(O)CC(=O)NC(CC(=O)O)C(=O)O` (configuration not stated), for which the T/C was 97 % of control under setting [10]; 101 % of control under setting [14]; 92 % of control under setting [15]; 92 % of control under setting [11]; 97 % of control under setting [12]; 94 % of control under setting [13].

`COC(=O)C(Cc1c[nH]c2ccccc12)NC(=O)C(NC(=O)OC(C)(C)C)C(C)C` (configuration not stated): under setting [15], the T/C is 91 % of control.
